The record followed here is patent publication US12404242B2, “Compositions and methods for making and using small molecules in the treatment of cancer” (Reglagene, Inc., priority 2021, dated 2025).

As a reminder, the EC50 is the midpoint of the concentration-response curve. For orientation: kinetic solubility means the concentration staying in solution when a stock, usually in DMSO, is diluted into the medium.

Structures are written as SMILES. ≈ marks a conversion by molar mass, not a printed value.

For one data set, the system named is U87 cells. In words: Cell viability (AlamarBlue), U87 glioblastoma cells. More on the design: key to EC50 (μM) in U87 cells: Inactive: less than 50% inhibition at the highest concentration tested at 50 μM. The following applies: 72 hours of treatment. It counts as cell-based, human. As for the experimental part:
(§1) In another exemplary method, half maximal effective concentration (EC50) was determined for some compounds and their isomers as disclosed herein in a variety of human cancer cell lines. In brief, cells from two prostate cancer cell lines (LNCaP, 22RV1), one glioblastoma cell line (U87), one breast cancer cell line (MCF7), a glioma cell line (LN18), a normal prostate cell line (RWPE1), and a glioblastoma cell line (T98G) were plated in a multi-well plate. After 24 hours, one of the compounds herein was added to the well at increasing concentrations. After 72 hours of treatment, cell viability was assessed using AlamrBlue® (Invitrogen) and fluorescence was read using the CLARIOstar Plus Multilabel Plate Reader (BMG Labtech). Samples were normalized to no treatment controls. EC50 values were determined using GraphPad Prism.

A further data set relates to RWPE1 cells. The data set is described as follows: Cell viability (AlamarBlue), RWPE1 normal prostate cells. It counts as cell-based, human. Also on record: key to EC50 (μM) in RWPE1 cells: Inactive: less than 50% inhibition at the highest concentration tested at 50 μM. The following applies: normal prostate cell line; for EC50 (μM) in RWPE1 cells: 72 hours of treatment. The method, then:
as §1
(In general: Alamar Blue is a resazurin reagent that responds to reducing activity.)

The subject of a further data set is LNCaP cells. The data set is described as follows: Cell viability (AlamarBlue), LNCaP prostate cancer cells. The following applies: 72 hours of treatment. Format: cell-based, human. Also on record: key to EC50 (μM) in LNCaP cells: Inactive: less than 50% inhibition at the highest concentration tested at 50 μM. As for the experimental part: as §1
In another data set the test system is 22RV1 cells. The data set is described as follows: Cell viability (AlamarBlue), 22RV1 prostate cancer cells. More on the design: key to EC50 (μM) in 22RV1 cells: Inactive: less than 50% inhibition at the highest concentration tested at 50 μM. Format: cell-based, human. The settings on record: 72 hours of treatment. As for the experimental part:
as §1

Data set [1] in a line: Kinetic solubility in aqueous PBS buffer (HPLC-MS). It counts as physicochemical. The following applies: kinetic from dmso stock, DMSO stock mixed with aqueous PBS buffer, filtered, read-out: Kinetic Solubility. As for the experimental part:
In another exemplary method, central nervous system multiparameter optimization (CNS MPO) score and kinetic solubility of selected compounds was determined. CNS MPO score for compounds and their isomers disclosed herein were calculated using an algorithm that uses a weighted scoring function assessing 6 key physicochemical properties (clogP, clogD, MW, TPSA, HBD, and pKa) for blood-brain-barrier (BBB penetration). CNS MPO score ranged from 0 and 6.0 with scores≥4.0 used as a cut-off to select compounds that can have a high probability of accumulating in the CNS. Kinetic solubility of a compound is the maximum solubility of the fastest precipitating species of the compound. Kinetic solubility was determined by preparing a concentrated stock solution for compounds and their isomers disclosed herein in an organic solvent (DMSO), after which the solution was mixed with an aqueous PBS buffer and then filtered. Filtrate was tested to quantify the kinetic solubilty using HPLC-MS calibration curve. The CNS MPO Score and kinetic solubility of the compounds tested are provided in Table 7 where “ND” means not determined.

Regarding `COC1CCC(C(=O)NC(=O)Nc2ccc(Oc3ncc(Cl)cn3)c(F)c2)CC1` (single isomer, unassigned) [Compound 14A, N-((4-((5-chloropyrimidin-2-yl)oxy)-3-fluorophenyl)carbamoyl)-4-methoxycyclohexane-1-carboxamide], the EC50 in the data set with U87 cells (Homo sapiens, U-87 MG, 72 h) worked out at 1.3 µM; with RWPE1 cells (Homo sapiens, RWPE-1, 72 hours of treatment) it was 1.3 µM; with LNCaP cells (Homo sapiens, LNCaP, 72 h) it was 1.8 µM; with 22RV1 cells (Homo sapiens, 22Rv1, 72 h), 1.1 µM.

For `COC1CCC(C(=O)NC(=O)Nc2ccc(Oc3ncc(Cl)cn3)c(F)c2)CC1` (single isomer, unassigned) [Compound 14B, N-((4-((5-chloropyrimidin-2-yl)oxy)-3-fluorophenyl)carbamoyl)-4-methoxycyclohexane-1-carboxamide], the “EC50 (μM) in U87 cells” value with U87 cells is “Inactive”. For the same compound, the “EC50 (μM) in RWPE1 cells” value in the data set on RWPE1 cells was “Inactive”. Further, the “EC50 (μM) in 22RV1 cells” value in the data set on 22RV1 cells is recorded as “Inactive”.

In the case of `COC1CC(C(=O)NC(=O)Nc2ccc(Oc3ccc(F)cn3)c(C)c2)C1` (single isomer, unassigned) [Compound 15B, N-((4-((5-fluoropyridin-2-yl)oxy)-3-methylphenyl)carbamoyl)-3-methoxycyclobutanecarboxamide], the EC50 in the data set with U87 cells amounted to 22 µM; in the data set on LNCaP cells it was 3.9 µM; in the data set with 22RV1 cells it was 17.3 µM. In addition, the “EC50 (μM) in RWPE1 cells” value with RWPE1 cells is “Inactive”.

Turning to `COC1CC(C(=O)NC(=O)Nc2ccc(Oc3ccc(C#N)cn3)c(C)c2)C1` (single isomer, unassigned) [Compound 16B, N-((4-((5-cyanopyridin-2-yl)oxy)-3-methylphenyl)carbamoyl)-3-methoxycyclobutane-1-carboxamide], the EC50 in the data set with U87 cells amounted to 24 µM; in the data set with LNCaP cells, 5 µM; with 22RV1 cells it was 21.2 µM. In addition, the “EC50 (μM) in RWPE1 cells” value in the data set with RWPE1 cells was “Inactive”.

As to `COC1CC(C(=O)NC(=O)Nc2ccc(Oc3ccc(Cl)cn3)c(C)c2)C1` (single isomer, unassigned) [Compound 19B, 1-{4-[(5-chloropyridin-2-yl)oxy]-3-methylphenyl}-3-(3-methoxycyclobutanecarbonyl) urea], the values for the EC50 with U87 cells, in the data set on LNCaP cells and in the data set with 22RV1 cells were 13.7 µM, 1.3 µM and 4.2 µM, respectively. In the data set with RWPE1 cells, the “EC50 (μM) in RWPE1 cells” value is “Inactive”.

Consider `COC1CCC(C(=O)NC(=O)Nc2ccc(Oc3ccc(C#N)cn3)c(C)c2)CC1` (stereo not drawn) [Compound 6, 3-{4-[(5-cyanopyridin-2-yl)oxy]-3-methylphenyl}-1-(4-methoxycyclohexanecarbonyl)urea], for which the kinetic solubility in data set [1] stood at 0.53 µM (≈ 0.216 µg/mL).

With `COC1CC(C(=O)NC(=O)Nc2ccc(Oc3ccc(F)cn3)c(C)c2)C1` (stereo not drawn) [Compound 15, N-((4-((5-fluoropyridin-2-yl)oxy)-3-methylphenyl)carbamoyl)-3-methoxycyclobutane-1-carboxamide], the kinetic solubility in data set [1] is 14.7 µM (≈ 5.48 µg/mL).

Take `COC1CC(C(=O)NC(=O)Nc2ccc(Oc3ccc(C#N)cn3)c(C)c2)C1` (stereo not drawn) [Compound 16, N-((4-((5-cyanopyridin-2-yl)oxy)-3-methylphenyl)carbamoyl)-3-methoxycyclobutane-1-carboxamide]: the kinetic solubility in data set [1] came out at 11.6 µM (≈ 4.41 µg/mL).

`COC1CC(C(=O)NC(=O)Nc2ccc(Oc3ncc(Cl)cn3)c(C)c2)C1` (stereo not drawn) [Compound 20, N-((4-((5-chloropyrimidin-2-yl)oxy)-3-methylphenyl)carbamoyl)-3-methoxycyclobutane-1-carboxamide]: in data set [1], the kinetic solubility was found to be 7.1 µM (≈ 2.77 µg/mL).

In the case of `COC1CC(C(=O)NC(=O)Nc2ccc(Oc3nccs3)c(C)c2)C1` (stereo not drawn) [Compound 45, 3-methoxy-N-((3-methyl-4-(thiazol-2-yloxy)phenyl)carbamoyl)cyclobutane-1-carboxamide], the solubility (kinetic) in data set [1] came to 58.4 µM (≈ 21.1 µg/mL).

In the case of `COC1CCC(C(=O)NC(=O)Nc2ccc(Oc3cnc(N4CCOCC4)nc3)c(C)c2)CC1` (stereo not drawn) [Compound 46, 4-methoxy-N-((3-methyl-4-((2-morpholinopyrimidin-5-yl)oxy)phenyl)carbamoyl)cyclohexane-1-carboxamide], in the data set on U87 cells, the “EC50 (μM) in U87 cells” value is recorded as “Inactive”. The EC50 with LNCaP cells (Homo sapiens, LNCaP, 72 h) came to 2.9 µM; in the data set with 22RV1 cells (Homo sapiens, 22Rv1, 72 h) it was 8 µM. For the same compound, the kinetic solubility in data set [1] was found to be 0.39 µM (≈ 0.183 µg/mL).

Turning to `COCCOC1CC(C(=O)NC(=O)Nc2ccc(Oc3ncc(Cl)cn3)c(C)c2)C1` (stereo not drawn) [Compound 48, N-((4-((5-chloropyrimidin-2-yl)oxy)-3-methylphenyl)carbamoyl)-3-(2-methoxyethoxy)cyclobutane-1-carboxamide], the EC50 is 6.4 µM with U87 cells (Homo sapiens, U-87 MG, 72 h); 12.4 µM in the data set with LNCaP cells (Homo sapiens, LNCaP, 72 h); 3.2 µM with 22RV1 cells (Homo sapiens, 22Rv1, 72 h). The solubility (kinetic) in data set [1] was found to be 84.2 µM (≈ 36.6 µg/mL).

As for `COCCOC1CC(C(=O)NC(=O)Nc2ccc(Oc3ccc(Cl)cn3)c(C)c2)C1` (stereo not drawn) [Compound 49, N-((4-((5-chloropyridin-2-yl)oxy)-3-methylphenyl)carbamoyl)-3-(2-methoxyethoxy)cyclobutane-1-carboxamide], the EC50 in the data set on U87 cells (Homo sapiens, U-87 MG, 72 h) was determined as 3.7 µM; with LNCaP cells (Homo sapiens, LNCaP, 72 h) it was 11.8 µM; in the data set with 22RV1 cells (Homo sapiens, 22Rv1, 72 h), 1.3 µM. In data set [1], the kinetic solubility came out at 37.5 µM (≈ 16.3 µg/mL).

Consider `COCCOC1CCC(C(=O)NC(=O)Nc2ccc(Oc3ncc(Cl)cn3)c(F)c2)CC1` (stereo not drawn) [Compound 54, N-((4-((5-chloropyrimidin-2-yl)oxy)-3-fluorophenyl)carbamoyl)-4-(2-methoxyethoxy)cyclohexane-1-carboxamide], for which the “EC50 (μM) in U87 cells” value in the data set on U87 cells is listed as “Inactive”. Also, the “EC50 (μM) in LNCaP cells” value in the data set with LNCaP cells was “Inactive”. Besides, the “EC50 (μM) in 22RV1 cells” value in the data set on 22RV1 cells is listed as “Inactive”.

Consider `COC1CC(C(=O)NC(=O)Nc2ccc(Oc3nncs3)c(C)c2)C1` (stereo not drawn) [Compound 55, N-((4-((1,3,4-thiadiazol-2-yl)oxy)-3-methylphenyl)carbamoyl)-3-methoxycyclobutanecarboxamide], for which, in the data set on U87 cells, the “EC50 (μM) in U87 cells” value is “Inactive”. Further, the “EC50 (μM) in LNCaP cells” value in the data set on LNCaP cells is on record as “Inactive”. Also, in the data set on 22RV1 cells (Homo sapiens, 22Rv1, 72 h), it took 30.6 µM to reach a half-maximal effect (EC50).

On to `COC1CC(C(=O)NC(=O)Nc2ccc(Oc3ncns3)c(C)c2)C1` (stereo not drawn) [Compound 57, N-((4-((1,2,4-thiadiazol-5-yl)oxy)-3-methylphenyl)carbamoyl)-3-methoxycyclobutane-1-carboxamide], for which the EC50 in the data set on U87 cells (Homo sapiens, U-87 MG, 72 h) came out at 13.5 µM; in the data set with LNCaP cells (Homo sapiens, LNCaP, 72 h), 3.1 µM; in the data set with 22RV1 cells (Homo sapiens, 22Rv1, 72 h), 6.3 µM. In addition, the kinetic solubility in data set [1] came to 75 µM (≈ 27.2 µg/mL).

On to `COC1CC(C(=O)NC(=O)Nc2ccc(Oc3ncc(C(F)(F)F)s3)c(C)c2)C1` (stereo not drawn) [Compound 61, 3-methoxy-N-((3-methyl-4-((5-(trifluoromethyl)thiazol-2-yl)oxy)phenyl)carbamoyl)cyclobutane-1-carboxamide], for which the EC50 in the data set on U87 cells (Homo sapiens, U-87 MG, 72 h) is 0.35 µM; with LNCaP cells (Homo sapiens, LNCaP, 72 h), 0.93 µM; in the data set with 22RV1 cells (Homo sapiens, 22Rv1, 72 h), 1.6 µM.

For `COC1CC(C(=O)NC(=O)Nc2ccc(Oc3ncc(C#N)s3)c(C)c2)C1` (stereo not drawn) [Compound 62, N-((4-((5-cyanothiazol-2-yl)oxy)-3-methylphenyl)carbamoyl)-3-methoxycyclobutane-1-carboxamide], the EC50 stood at 5.4 µM with U87 cells (Homo sapiens, U-87 MG, 72 h); 21 µM in the data set on LNCaP cells (Homo sapiens, LNCaP, 72 h); 1 µM in the data set with 22RV1 cells (Homo sapiens, 22Rv1, 72 h).

Consider `COC1(C(=O)NC(=O)Nc2ccc(Oc3ncc(Cl)cn3)c(C)c2)CC1` [Compound 66, N-((4-((5-chloropyrimidin-2-yl)oxy)-3-methylphenyl)carbamoyl)-1-methoxycyclopropane-1-carboxamide], for which the “EC50 (μM) in U87 cells” value in the data set on U87 cells was “Inactive”. In the data set on LNCaP cells, the “EC50 (μM) in LNCaP cells” value is given as “Inactive”. Further, in the data set on 22RV1 cells, the “EC50 (μM) in 22RV1 cells” value is “Inactive”.

As to `COC1(C(=O)NC(=O)Nc2ccc(Oc3nccs3)c(C)c2)CC1` [Compound 68, 1-methoxy-N-((3-methyl-4-(thiazol-2-yloxy)phenyl)carbamoyl)cyclopropane-1-carboxamide], the “EC50 (μM) in U87 cells” value in the data set on U87 cells is on record as “Inactive”. Besides, in the data set on LNCaP cells, the “EC50 (μM) in LNCaP cells” value was “Inactive”. Besides, the “EC50 (μM) in 22RV1 cells” value with 22RV1 cells is listed as “Inactive”.

As for `COC1(C(=O)NC(=O)Nc2ccc(Oc3ncccn3)c(C)c2)CC1` [Compound 69, 1-methoxy-N-((3-methyl-4-(pyrimidin-2-yloxy)phenyl)carbamoyl)cyclopropane-1-carboxamide], the “EC50 (μM) in U87 cells” value in the data set on U87 cells was “Inactive”. Besides, the “EC50 (μM) in LNCaP cells” value in the data set with LNCaP cells was “Inactive”. The “EC50 (μM) in 22RV1 cells” value in the data set with 22RV1 cells is “Inactive”.

`COC12CC(C(=O)NC(=O)Nc3ccc(Oc4ncc(Cl)cn4)c(C)c3)(C1)C2` [Compound 85, N-((4-((5-chloropyrimidin-2-yl)oxy)-3-methylphenyl)carbamoyl)-3-methoxybicyclo[1.1.1]pentane-1-carboxamide]: the EC50 in the data set on U87 cells (Homo sapiens, U-87 MG, 72 h) came to 0.06 µM. In addition, the solubility (kinetic) in data set [1] amounted to 2.21 µM (≈ 0.89 µg/mL).
